Consider 27 compounds from patent US8822467B2 (Ligand Pharmaceuticals Inc., priority 2009, dated 2014).

pIC50: −log10 of the molar value. Like-named read-outs stand apart in the source and are kept apart here. Where only a bound is given, the exact number is not on record here.

The target in the test is T1, human CRTH2 (Homo sapiens, UniProt Q9Y5Y4).
T1 construct: expressed in transfected cells
T1 sequence (Q9Y5Y4 1-395): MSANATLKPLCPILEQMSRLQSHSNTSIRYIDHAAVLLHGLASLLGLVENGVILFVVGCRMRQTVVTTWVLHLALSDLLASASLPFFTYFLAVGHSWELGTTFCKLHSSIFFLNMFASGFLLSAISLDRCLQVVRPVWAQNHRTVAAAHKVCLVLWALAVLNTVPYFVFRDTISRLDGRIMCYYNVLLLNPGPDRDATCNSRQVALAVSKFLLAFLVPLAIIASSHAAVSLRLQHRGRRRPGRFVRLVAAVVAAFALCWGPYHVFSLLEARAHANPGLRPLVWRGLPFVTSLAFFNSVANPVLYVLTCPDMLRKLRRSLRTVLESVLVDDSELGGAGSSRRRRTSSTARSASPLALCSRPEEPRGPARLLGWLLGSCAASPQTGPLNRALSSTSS
Put plainly: [35S]GTPγS binding assay (SPA) on membranes from CHO-K1 cells stably expressing human CRTH2, stimulated with 60 nM DHK-PGD2. In kind it is biochemical. As to conditions: read-out: CRTH2 hGTPγS IC50. The method, boiled down: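 Read-out is scintillation proximity: bound [35S]GTPγS (500 pM, with 10 μM GDP) was counted 4 h after centrifuging a 2 h ambient-temperature incubation. Reactions held 4 μg human CRTH2 CHO-K1 membrane protein, 60 nM DHK-PGD2 agonist and test compounds at increasing concentrations. Buffer: 20 mM HEPES pH 7.4, 10 mM MgCl2, 300 mM NaCl, 0.2% BSA, 1% DMSO.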

Where [1] appears, read: membranes of CHO-K1 cells expressing human CRTH2, 60 nM DHK-PGD2, Table 1.

For the compound `CN(Cc1ccc(OCC(=O)O)c(-c2cccc(S(C)(=O)=O)c2)c1)S(=O)(=O)c1cccc(C#N)c1` [Example 88, 2-(3-methylsulfonylphenyl)-4-((3-cyano-N-methylphenylsulfonamido)methyl)phenoxyacetic acid], the pIC50 (potency class symbols, Table 2) is greater than 7.00.

As for `CCS(=O)(=O)c1cccc(-c2cc(CN(C)S(=O)(=O)c3ccc(F)cc3)ccc2OCC(=O)O)c1` [Example 83, 2-(3-ethylsulfonylphenyl)-4-((4-fluoro-N-methylphenylsulfonamido)methyl)phenoxyacetic acid], the pIC50 (potency class symbols, Table 2) is greater than 7.00.

As to `CN(Cc1ccc(OCC(=O)O)c(-c2cccc3cnccc23)c1)S(=O)(=O)c1ccc(F)cc1` [Example 185, 2-(isoquinolin-5-yl)-4-((4-fluoro-N-methylphenylsulfonamido)methyl)phenoxyacetic acid], the pIC50 (potency class symbols, Table 2) is 5.00 to 6.00.

With `Cc1ccc(S(=O)(=O)N(C)Cc2ccc(OCC(=O)O)c(-c3cccc(C#N)c3)c2)cc1F` [Example 92, 2-(3-cyanophenyl)-4-((3-fluoro-4-methyl-N-methylphenylsulfonamido)methyl)phenoxyacetic acid], under “potency class symbols, Table 2”, the pIC50 is greater than 7.00.

With `CNC(=O)c1cccc(-c2cc(CN(C)S(=O)(=O)c3ccc(F)cc3)ccc2OCC(=O)O)c1` [Example 135, 2-(3-N-methylaminocarbonylphenyl)-4-((4-fluoro-N-methylphenylsulfonamido)methyl)phenoxyacetic acid], the pIC50 (potency class symbols, Table 2) was 6.00 to 7.00.

As for `CN(Cc1ccc(OCC(=O)O)c(-c2cc(F)cc(C#N)c2)c1)S(=O)(=O)c1ccc(F)cc1` [Example 64, 2-(3-cyano-5-fluorophenyl)-4-((4-fluoro-N-methylphenylsulfonamido)methyl)phenoxyacetic acid], the pIC50 was 7.92 under setting [1] and greater than 7.00 (potency class symbols, Table 2).

Turning to `CN(Cc1ccc(OCC(=O)O)c(-c2cccnc2)c1)S(=O)(=O)c1ccc(F)cc1` [Example 147, 2-(3-pyridinyl)-4-((4-fluoro-N-methylphenylsulfonamido)methyl)phenoxyacetic acid], the pIC50 (potency class symbols, Table 2) was 6.00 to 7.00.

With `CN(Cc1ccc(OCC(=O)O)c(-c2cc(F)cc(C#N)c2)c1)S(=O)(=O)c1ccc(Cl)s1` [Example 191, 2-(3-cyano-5-fluorophenyl)-4-((2-chloro-N-methylthiophene-5-sulfonamido)methyl)phenoxyacetic acid], the pIC50 (potency class symbols, Table 2) is greater than 7.00.

In the case of `CN(Cc1ccc(OCC(=O)O)c(-c2cccc(C(F)(F)F)c2)c1)S(=O)(=O)c1ccc(F)c(Cl)c1` [Example 74, 2-(3-trifluoromethylphenyl)-4-((3-chloro-4-fluoro-N-methylphenylsulfonamido)methyl)phenoxyacetic acid], the pIC50 (potency class symbols, Table 2) was greater than 7.00.

In the case of `CN(Cc1ccc(OCC(=O)O)c(-c2ccc3nonc3c2)c1)S(=O)(=O)c1ccc(F)cc1` [Example 187, 2-(5-benzo[c][1,2,5]oxadiazolyl)-4-((4-fluoro-N-methylphenylsulfonamido)methyl)phenoxyacetic acid], the pIC50 by setting is: under setting [1], 7.72; (potency class symbols, Table 2) greater than 7.00.

`CN(Cc1ccc(OCC(=O)O)c(-c2cccc(C(F)(F)F)c2)c1)S(=O)(=O)c1ccc(F)cc1` [Example 95, 2-(3-trifluoromethylphenyl)-4-((4-fluoro-N-methylphenylsulfonamido)methyl)phenoxyacetic acid]: the pIC50 (potency class symbols, Table 2) was greater than 7.00.

Turning to `Cc1ccc(S(=O)(=O)N(C)Cc2ccc(OCC(=O)O)c(-c3cccc(C#N)c3)c2)cc1` [Example 109, 2-(3-cyanophenyl)-4-((4-methyl-N-methylphenylsulfonamido)methyl)phenoxyacetic acid], the pIC50 (potency class symbols, Table 2) was 6.00 to 7.00.

As for `CN(Cc1ccc(OCC(=O)O)c(-c2cc(F)cc(C#N)c2)c1)S(=O)(=O)c1ccc(F)c(F)c1` [Example 44, 2-(3-cyano-5-fluorophenyl)-4-((3,4-difluoro-N-methylphenylsulfonamido)methyl)phenoxyacetic acid], the pIC50 by setting is: under setting [1], 8.74; (potency class symbols, Table 2) greater than 7.00.

In the case of `CN(Cc1ccc(OCC(=O)O)c(-c2cccc(C(F)(F)F)c2)c1)S(=O)(=O)c1ccccc1Cl` [Example 170, 2-(3-trifluoromethylphenyl)-4-((2-chloro-N-methylphenylsulfonamido)methyl)phenoxyacetic acid], the pIC50 (potency class symbols, Table 2) is 5.00 to 6.00.

Take `CN(Cc1cc(F)c(OCC(=O)O)c(-c2cccc(C#N)c2)c1)S(=O)(=O)c1ccc(F)cc1` [Example 136, 2-(3-cyanophenyl)-4-((4-fluoro-N-methylphenylsulfonamido)methyl)-6-fluorophenoxyacetic acid]: the pIC50 (potency class symbols, Table 2) was 6.00 to 7.00.

`COc1cc(F)cc(-c2cc(CN(C)S(=O)(=O)c3ccc(F)c(Cl)c3)ccc2OCC(=O)O)c1` [Example 37, 2-(3-fluoro-5-methoxyphenyl)-4-((3-chloro-4-fluoro-N-methylphenylsulfonamido)methyl)phenoxyacetic acid]: the negative-log IC50 (pIC50) under setting [1] is 9.22 and the pIC50 (potency class symbols, Table 2) is greater than 7.00.

As to `Cc1noc(C)c1-c1cc(CN(C)S(=O)(=O)c2ccc(F)cc2)ccc1OCC(=O)O` [Example 171, 2-(3,5-dimethylisoxazol-4-yl)-4-((4-fluoro-N-methylphenylsulfonamido)methyl)phenoxyacetic acid], under “potency class symbols, Table 2”, the negative-log IC50 (pIC50) was 5.00 to 6.00.

Turning to `COc1cc(F)cc(-c2cc(CN(C)S(=O)(=O)c3ccc(OC)c(F)c3)ccc2OCC(=O)O)c1` [Example 48, 2-(3-fluoro-5-methoxyphenyl)-4-((3-fluoro-4-methoxy-N-methylphenylsulfonamido)methyl)phenoxyacetic acid], the pIC50 runs as follows: under setting [1], 8.54; (potency class symbols, Table 2) greater than 7.00.

Turning to `CN(Cc1ccc(OCC(=O)O)c(-c2cccc(C(F)(F)F)c2)c1)S(=O)(=O)c1ccc(S(C)(=O)=O)cc1` [Example 134, 2-(3-trifluoromethylphenyl)-4-((4-methylsulfonyl-N-methylphenylsulfonamido)methyl)phenoxyacetic acid], for the setting “potency class symbols, Table 2”, the pIC50 was 6.00 to 7.00.

In the case of `CN(Cc1ccc(OCC(=O)O)c(-c2ccc[n+]([O-])c2)c1)S(=O)(=O)c1ccc(F)cc1` [Example 176, 2-(N-oxy-pyridine-3-yl)-4-((4-fluoro-N-methylphenylsulfonamido)methyl)phenoxyacetic acid], the pIC50 (potency class symbols, Table 2) is 5.00 to 6.00.

Turning to `CN(Cc1ccc(OCC(=O)O)c(-c2cccc(C#N)c2)c1)S(=O)(=O)c1ccc(F)c(Cl)c1` [Example 62, 2-(3-cyanophenyl)-4-((3-chloro-4-fluoro-N-methylphenylsulfonamido)methyl)phenoxyacetic acid], the pIC50 (potency class symbols, Table 2) is greater than 7.00.

In the case of `CN(Cc1ccc(OCC(=O)O)c(-c2cc(F)cc(C#N)c2)c1)S(=O)(=O)c1cccc(Cl)c1` [Example 45, 2-(3-cyano-5-fluorophenyl)-4-((3-chloro-N-methylphenylsulfonamido)methyl)phenoxyacetic acid], the negative logarithm of the IC50 (pIC50) was 8.70 under setting [1] and greater than 7.00 (potency class symbols, Table 2).

For `CN(Cc1ccc(OCC(=O)O)c(-c2cccc(S(C)(=O)=O)c2)c1)S(=O)(=O)c1ccc(F)c(Cl)c1` [Example 39, 2-(3-methylsulfonylphenyl)-4-((3-chloro-4-fluoro-N-methylphenylsulfonamido)methyl)phenoxyacetic acid], where the note is “potency class symbols, Table 2”, the pIC50 was greater than 7.00.

Take `CN(Cc1ccc(OCC(=O)O)c(-c2cccc(S(C)(=O)=O)c2)c1)S(=O)(=O)c1cc(F)cc(F)c1` [Example 72, 2-(3-methylsulfonylphenyl)-4-((3,5-difluoro-N-methylphenylsulfonamido)methyl)phenoxyacetic acid]: the negative-log IC50 (pIC50) (potency class symbols, Table 2) is greater than 7.00.

As for `CN(Cc1ccc(OCC(=O)O)c(-c2cccc(F)c2F)c1)S(=O)(=O)c1ccc(F)cc1` [Example 122, 2-(2,3-difluorophenyl)-4-((4-fluoro-N-methylphenylsulfonamido)methyl)phenoxyacetic acid], the pIC50 (potency class symbols, Table 2) was 6.00 to 7.00.

For the compound `CN(Cc1ccc(OCC(=O)O)c(-c2ccc(C#N)s2)c1)S(=O)(=O)c1ccc(F)cc1` [Example 188, 2-(2-cyanothiophen-5-yl)-4-((4-fluoro-N-methylphenylsulfonamido)methyl)phenoxyacetic acid], under “potency class symbols, Table 2”, the pIC50 is greater than 7.00.

For the compound `Cc1cc(S(=O)(=O)N(C)Cc2ccc(OCC(=O)O)c(-c3cccc(C#N)c3)c2)ccc1F` [Example 66, 2-(3-cyanophenyl)-4-((3-methyl-4-fluoro-N-methylphenylsulfonamido)methyl)phenoxyacetic acid], the pIC50 (potency class symbols, Table 2) is greater than 7.00.

The term pIC50 denotes the negative decadic logarithm of the IC50, by convention in mol/L.
